Reference: the NIST ThermoML archive (doi:10.1016/j.jct.2006.10.017)

Assays:
[1] = xn = mol fraction of the nth substance listed; details: 101 kPa, Liquid
[2] = refractive index (Na D-line) (dimensionless); xn = mol fraction of the nth substance listed; details: 101 kPa, Liquid

CCO [ethanol] + CCCCn1cc[n+](C)c1.F[P-](F)(F)(F)(F)F
x2 = 0
Details	mass density, 293.15 K [kg/m3]	mass density, 298.15 K [kg/m3]	mass density, 303.15 K [kg/m3]	refractive index, 293.15 K	refractive index, 298.15 K	refractive index, 303.15 K	speed of sound, 293.15 K [m/s]	speed of sound, 298.15 K [m/s]	speed of sound, 303.15 K [m/s]
[1]	789.3	785.1	780.7	–	–	–	1160	1143	1127
[2]	–	–	–	1.36138	1.35929	1.35725	–	–	–

CCO [ethanol] + CCCCn1cc[n+](C)c1.COS(=O)(=O)[O-]
x2 = 0
Details	mass density, 293.15 K [kg/m3]	mass density, 298.15 K [kg/m3]	mass density, 303.15 K [kg/m3]	refractive index, 293.15 K	refractive index, 298.15 K	refractive index, 303.15 K	speed of sound, 293.15 K [m/s]	speed of sound, 298.15 K [m/s]	speed of sound, 303.15 K [m/s]
[1]	789.3	785.1	780.7	–	–	–	1160	1143	1127
[2]	–	–	–	1.36138	1.35929	1.35725	–	–	–

CCCCn1cc[n+](C)c1.F[P-](F)(F)(F)(F)F [1-butyl-3-methylimidazolium hexafluorophosphate] + CCO
Details	mass density, 293.15 K [kg/m3]	mass density, 298.15 K [kg/m3]	mass density, 303.15 K [kg/m3]	refractive index, 293.15 K	refractive index, 298.15 K	refractive index, 303.15 K	speed of sound, 293.15 K [m/s]	speed of sound, 298.15 K [m/s]	speed of sound, 303.15 K [m/s]
[1], x1 = 0.0009	791.5	787.4	783.1	–	–	–	1163	1144	1126
[1], x1 = 0.0021	794.3	790.1	785.8	–	–	–	1162	1145	1128
[1], x1 = 0.0033	797	792.8	788.5	–	–	–	1164	1146	1128
[1], x1 = 0.0056	802.3	798.1	793.8	–	–	–	1166	1147	1130
[1], x1 = 0.496	1246.7	1242.2	1237.9	–	–	–	1371	1359	1347
[1], x1 = 0.5032	1249.4	1245	1240.7	–	–	–	1373	1361	1349
[1], x1 = 0.5981	1282	1277.6	1273.4	–	–	–	1397	1384	1372
[1], x1 = 0.7045	1311.6	1307.3	1303	–	–	–	1417	1404	1391
[1], x1 = 0.8003	1333.9	1329.6	1325.4	–	–	–	1431	1418	1405
[1], x1 = 0.9002	1354.1	1349.9	1345.7	–	–	–	1443	1430	1418
[1], x1 = 0.9834	1368.8	1364.7	1360.5	–	–	–	1454	1440	1428
[1], x1 = 1	1371.6	1367.3	1363	–	–	–	1455	1443	1431
[2], x1 = 0.0009	–	–	–	1.36162	1.35956	1.35751	–	–	–
[2], x1 = 0.0021	–	–	–	1.36196	1.3599	1.35781	–	–	–
[2], x1 = 0.0033	–	–	–	1.36222	1.36018	1.35812	–	–	–
[2], x1 = 0.0056	–	–	–	1.36281	1.3608	1.35871	–	–	–
[2], x1 = 0.496	–	–	–	1.40171	1.40034	1.3994	–	–	–
[2], x1 = 0.5032	–	–	–	1.40193	1.40055	1.39959	–	–	–
[2], x1 = 0.5981	–	–	–	1.40432	1.40294	1.40176	–	–	–
[2], x1 = 0.7045	–	–	–	1.40639	1.40507	1.40376	–	–	–
[2], x1 = 0.8003	–	–	–	1.4079	1.40656	1.40522	–	–	–
[2], x1 = 0.9002	–	–	–	1.4093	1.40799	1.40666	–	–	–
[2], x1 = 0.9834	–	–	–	1.41052	1.40923	1.40795	–	–	–
[2], x1 = 1	–	–	–	1.41069	1.40937	1.40808	–	–	–

CCO [ethanol] + COS(=O)(=O)[O-].Cn1cc[n+](C)c1
x2 = 0
Details	mass density, 293.15 K [kg/m3]	mass density, 298.15 K [kg/m3]	mass density, 303.15 K [kg/m3]	refractive index, 293.15 K	refractive index, 298.15 K	refractive index, 303.15 K	speed of sound, 293.15 K [m/s]	speed of sound, 298.15 K [m/s]	speed of sound, 303.15 K [m/s]
[1]	789.3	785.1	780.7	–	–	–	1160	1143	1127
[2]	–	–	–	1.36138	1.35929	1.35725	–	–	–
